In one experiment the target is WT MAO A. The settings on record: cited from earlier work; for Ki: WT MAO A.
In experiment [1] the target is T1, Ile199Ala/Tyr326Ala MAO B (Homo sapiens, UniProt P27338, I199A/Y326A).
T1 sequence (P27338 1-520 I199A/Y326A): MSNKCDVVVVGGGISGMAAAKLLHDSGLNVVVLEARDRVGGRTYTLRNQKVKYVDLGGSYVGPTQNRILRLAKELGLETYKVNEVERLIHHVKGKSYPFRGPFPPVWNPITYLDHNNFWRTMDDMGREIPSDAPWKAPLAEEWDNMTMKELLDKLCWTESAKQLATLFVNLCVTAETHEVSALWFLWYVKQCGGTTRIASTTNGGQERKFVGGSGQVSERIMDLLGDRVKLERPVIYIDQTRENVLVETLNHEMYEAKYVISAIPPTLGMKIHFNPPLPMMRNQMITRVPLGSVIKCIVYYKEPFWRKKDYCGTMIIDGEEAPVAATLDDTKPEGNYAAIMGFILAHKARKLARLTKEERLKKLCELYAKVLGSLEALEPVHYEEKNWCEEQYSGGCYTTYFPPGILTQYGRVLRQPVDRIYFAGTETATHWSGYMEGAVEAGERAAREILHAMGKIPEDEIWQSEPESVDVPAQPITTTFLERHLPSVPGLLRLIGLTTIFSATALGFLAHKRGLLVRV
As to the kind of experiment: Steady-state substrate oxidation and pH dependence, Ile199Ala/Tyr326Ala MAO B. The experiment is classed as biochemical.

The target of another experiment is T2, Ile199Ala MAO B (Homo sapiens, UniProt P27338, I199A).
T2 sequence (P27338 1-520 I199A): T1 sequence (P27338 1-520 I199A/Y326A) with A326Y
Description: Steady-state substrate oxidation and pH dependence, Ile199Ala MAO B. The experiment is classed as biochemical.

Another experiment concerns the target T3, MAO B Ile199Ala (Homo sapiens, UniProt P27338, I199A).
T3 sequence (P27338 1-520 I199A): T1 sequence (P27338 1-520 I199A/Y326A) with A326Y
It is filed as biochemical.

Experiment [2] concerns the target T4, WT MAO B (Homo sapiens, UniProt P27338).
T4 sequence (P27338 1-520): T1 sequence (P27338 1-520 I199A/Y326A) with A199I, A326Y
The conditions noted are these: pH 7.5; cited from earlier work.

In experiment [3] the target is T5, MAO B Ile199Ala-Tyr326Ala (Homo sapiens, UniProt P27338, I199A/Y326A).
T5 sequence (P27338 1-520 I199A/Y326A): T1 sequence (P27338 1-520 I199A/Y326A)
The experiment is classed as biochemical.

For experiment [4], the target named is T4, WT MAO B. As to the kind of experiment: Inhibition of WT MAO B, Ki from initial rates of substrate oxidation. It is filed as biochemical.
Experiment [5] addresses T4, WT MAO B. Description: Steady-state substrate oxidation and pH dependence, WT MAO B. It is filed as biochemical. The settings on record: pH 7.5.
[6] abbreviates: Ki, Ile199Ala single mutant, pH 7.5.
Setting [7] is: Ile199Ala-Tyr326Ala double mutant.
Setting [8] is: Ile199Ala-Tyr326Ala double mutant, pH 9.3.

Residue numbers refer to the chain shown, from its start. Like-named read-outs stand apart in the source and are kept apart here.

What is called Ki is the dissociation constant of the complex between target and ligand, obtained from inhibition or displacement. For the molecule `N[C@@H]1C[C@H]1c1ccccc1` (racemic) [Tranylcypromine], the Ki on WT MAO A is 19 µM.
On to `NCc1ccccc1` [Benzylamine, benzylamine], for which the KM result in experiment [1] (I199A-Y326A, pH 7.5) is recorded as “too high to measure”. Also, the 2nd order rate in experiment [1] (I199A-Y326A, pH 7.5, no saturation) is recorded as 2nd order rate =: 0.0106 ±0.0002 μM^−1min^−1. In addition, the “V/K extrapolated for fully deprotonated free enzyme, of WT activity” value was ~ 5% in experiment [1] (double mutant) and 42% on Ile199Ala MAO B (single mutant).
In the case of `C(=CCc1ccccc1)Cc1ccccc1` [DPB, 1,4-Diphenyl-2-butene], the Ki at MAO B Ile199Ala (setting [6]) is 8.1 ± 1.6 µM; at WT MAO B [2], 34.5 ± 1.4 µM; in experiment [3] (setting [8]) it was “no inhibition”. Besides, the “binding / inhibition in words” value in experiment [3] (setting [7]) is “no detectable binding”.
As for `C(C=Cc1ccccc1)=Cc1ccccc1` [DPBD, 1,4-Diphenyl-1,3-butadiene], the figures for the inhibition constant (Ki) (at MAO B Ile199Ala; on WT MAO B [2]; in experiment [3] (setting [8])) were 1 ± 0.03 µM, 7 ± 0.2 µM and “no inhibition”, respectively. Besides, the “binding / inhibition in words” value in experiment [3] (setting [7]) is recorded as “no detectable binding”.
Take `CC(C)=CCC/C(C)=C/CC/C(C)=C/CO` [Farnesol, trans,trans-farnesol]: the Ki on MAO B Ile199Ala (setting [6]) was 2.7 ± 0.4 µM; in experiment [3] it was 18 ± 3 µM. Besides, in the experiment with WT MAO A (previous work), the “binding to human MAO A in words” value is listed as “do not bind”. Besides, in experiment [3] (setting [7]), the “binding / inhibition in words” value was “weaker binding”.
Take `Cc1nccc2c1[nH]c1ccccc12` [Harmane, harmane]: the Ki at MAO B Ile199Ala was 550 ± 50 µM; at WT MAO B [4], 140 ± 47 µM; on WT MAO A, 0.58 ± 0.02 µM; in experiment [3], 165 ± 17 µM.
On to `O=C1Nc2ccccc2C1=O` [Isatin], for which the inhibitory constant (Ki) on WT MAO A is 15 µM.
With `CN(C)c1ccc2nc3ccc(=[N+](C)C)cc-3sc2c1` [Methylene Blue, methylene blue], the “binding / inhibition in words” value in experiment [3] (setting [7]) was “affinity higher than that observed with WT MAO B”.
Usually Km stands for the substrate concentration at which the rate is half of its maximum. In general, kcat refers to the maximal rate divided by the concentration of active sites. As for `NCCCCc1ccccc1` [Phenylbutylamine, phenylbutylamine], the Km in experiment [1] (I199A-Y326A, pH 7.5) stood at 55 ± 2 µM; at WT MAO B [5], 19 ± 3 µM; on Ile199Ala MAO B (I199A, pH 7.5) it was 8.9 ± 0.7 µM. For the same molecule, the kcat was 2.37 ± 0.017 s⁻¹ in experiment [1] (I199A-Y326A, pH 7.5); 1.83 ± 0.083 s⁻¹ on WT MAO B [5]; 2.25 ± 0.05 s⁻¹ at Ile199Ala MAO B (I199A, pH 7.5).
In the case of `NCCc1ccccc1` [Phenylethylamine, Phenethylamine], in experiment [1] (double mutant, pH 7.5), the “KM value higher than WT enzyme” value amounted to 75 fold. Further, at Ile199Ala MAO B (single mutant, pH 7.5), the “increase in KM relative to WT enzyme” value is reported as 4 fold.
On to `Cc1ccc2c(c1)c1c3n2CCNC3CCC1` (stereo not shown) [Pirlindole, pirlindole], for which the Ki entry at MAO B Ile199Ala (Ile199Ala single mutant, pH 7.5) is “No inhibition”; on MAO B Ile199Ala (Ile199Ala single mutant, pH 7.5, listed as pirlindole), “neither MAO B nor the Ile199Ala single mutant are inhibited”; on WT MAO B [4] (WT MAO B, pH 7.5), “No inhibition”; on WT MAO B [4] (WT MAO B, pH 7.5, listed as pirlindole), “neither MAO B nor the Ile199Ala single mutant are inhibited”; on WT MAO A it was 0.92 ± 0.04 µM; in experiment [3] it was 4.1 ± 0.2 µM.
Regarding `C[C@H](NCc1ccc(OCc2cccc(F)c2)cc1)C(N)=O` [Safinamide], the “weaker affinity than WT MAO B” value in experiment [3] (double mutant relative to WT MAO B) is recorded as ~ 10 fold.
Consider `NC1CCc2ccccc21` (stereo not shown) [aminoindane], for which the “binding / inhibition in words” value in experiment [3] is given as “Weak binding”.
Turning to `CNC1CCc2ccccc21` (stereo not shown) [methylaminoindane], the “binding / inhibition in words” value in experiment [3] is “Weak binding”.
As for `NCc1ccc(C(F)(F)F)cc1` [p-CF3-benzylamine], the “V/K extrapolated for fully deprotonated free enzyme, of WT activity” value in experiment [1] (double mutant) is on record as 24%; on Ile199Ala MAO B (single mutant), 33%.
Regarding `NS(=O)(=O)Cc1noc2ccccc12` [zonisamide], the “binding / inhibition in words” value in experiment [3] (setting [7]) was “no detectable inhibition”.

The values are drawn from PMC3228903 (The FEBS journal, 2011).
